Patent US8093060B2, “Multisite phosphorylated peptide (protein) recognizing compound and detection method, imaging method, alzheimer's disease diagnosing method and reagent kit using the same” (Canon Kabushiki Kaisha, priority 2008, dated 2012)

Key:
[1] = biological target: T1, phosphorylated tau aggregate (Homo sapiens, UniProt P10636); assay: Fluorescence titration of phosphorylated tau aggregate against 100 nM BODIPY-Zn(Dpa); format: binding; settings: compared with tau aggregate and amyloid β aggregate
T1 construct: made in house; host or cells: Escherichia coli
Procedure: The ranges of concentrations at which a phosphorylated tau aggregate, a tau aggregate, and an amyloid β aggregate interact with BODIPY-Zn(Dpa) were examined by titration. Titration was performed in the range of tau concentrations of 0 to 320 nM (0 to 14 μg/mL) against 100 nM of BODIPY-Zn(Dpa). Using a solvent obtained by adding 10% DMSO and 10 μM Zn(NO3)2 to HBS (10 mM HEPES (pH 7.4), 150 mM NaCl), the solution was incubated at 37° C. for 60 min, and fluorescence was measured (excitation wavelength, 490 nm; fluorescence wavelength, 545 nm).

[2] = system: hippocampal tissues from the normal human brain; assay: Fluorescence staining of normal human brain hippocampal tissue sections
Procedure: To investigate whether an excessively phosphorylated tau protein in brain tissues can be detected, a fluorescence staining experiment of hippocampal tissue sections from a human brain affected by Alzheimer (AD) and a normal brain was performed using BODIPY-Zn(Dpa). Specifically, hippocampal tissue sections from the AD-affected human brain or the normal brain were deparaffinized (xylene immersion for 5 min was repeated three times, then each section was immersed in 100%, 90%, 80% and 70% aqueous ethanol solution in stages [for 2 min each], and finally washed twice with water for 5 min), lipofuscin was removed (washed twice with PBS for 2 min, immersed in 0.25% by weight permanganate potassium/PBS for 30 min, washed twice with PBS for 2 min, immersed in 1% by weight oxalic acid and 1% by weight potassium pyrosulfate/PBS for 6 min and finally washed twice with PBS for 2 min), trypsin treatment was performed (washed twice with PBS-Tween at room temperature for 2 min and 0.05% Trypsin/PBS at 37° C. for 15 min), and finally washed twice with PBS-Tween at room temperature for 5 min, and costaining was performed using an antibody and BODIPY-Zn(Dpa). First, blocking was performed with 10% goat serum (37° C., 30 min) to remove 10% goat serum, then a primary antibody was added, and a reaction was performed at 4° C. for 17 to 19 h. […]

T1 sequence (P10636 1-441 isoform P10636-8): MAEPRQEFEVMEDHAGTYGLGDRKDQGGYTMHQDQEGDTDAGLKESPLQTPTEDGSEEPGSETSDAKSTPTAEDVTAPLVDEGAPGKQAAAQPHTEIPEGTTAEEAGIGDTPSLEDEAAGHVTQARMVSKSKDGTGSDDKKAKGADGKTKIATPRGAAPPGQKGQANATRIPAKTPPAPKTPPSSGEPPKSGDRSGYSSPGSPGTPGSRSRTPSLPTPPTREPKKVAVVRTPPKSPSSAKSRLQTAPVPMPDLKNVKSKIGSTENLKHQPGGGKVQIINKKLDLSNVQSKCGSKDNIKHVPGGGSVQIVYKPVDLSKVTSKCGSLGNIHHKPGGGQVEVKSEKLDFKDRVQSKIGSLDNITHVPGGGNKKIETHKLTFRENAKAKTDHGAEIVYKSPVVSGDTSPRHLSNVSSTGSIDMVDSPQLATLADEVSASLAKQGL

For `CC1=C(c2ccc(CN(C)Cc3ccccn3)nc2)C(C)=[N+]2C1=C(c1cc(OCCOCCOCCO)cc(OCCOCCOCCO)c1)c1c(C)c(-c3ccc(CN(C)Cc4ccccn4)nc3)c(C)n1[B-]2(F)F.O=[N+]([O-])[O-].O=[N+]([O-])[O-].O=[N+]([O-])[O-].O=[N+]([O-])[O-].[Zn+2].[Zn+2]` [BODIPY-Zn(Dpa)], the “concentration at which fluorescence change occurred” value [1] was “at the lowest concentration” and the fluorescence in tissue [2] was “is not observed”.
